In ChEMBL document CHEMBL5137009, “On the Utility of Chemical Strategies to Improve Peptide Gut Stability” (J Med Chem, 2022):

Columns and labels:
[1] = Stability of the compound in simulated gastric fluid at pH 1.2 assessed as half life measured up to 24 hrs by RP-HPLC-UV analysis; assay type: ADME
[2] = Stability of the compound in simulated intestinal fluid at pH 6.8 assessed as half life measured up to 24 hrs by RP-HPLC-UV analysis; assay type: ADME

SMILES	half-life [1]	half-life [2]
CC[C@H](C)[C@@H]1NC(=O)[C@H](CCC(=O)O)NC(=O)[C@@H]2CCCN2C(=O)[C@H](Cc2cnc[nH]2)NC(=O)[C@H](CC(=O)O)NC(=O)[C@H](Cc2ccc(O)cc2)NC(=O)[C@H](CC(N)=O)NC(=O)[C@@H]2CSSC[C@H](NC(=O)CN)C(=O)N[C@@H](CSSC[C@@H](C(N)=O)NC1=O)C(=O)N[C@@H](CO)C(=O)N[C@@H](CC(=O)O)C(=O)N1CCC[C@H]1C(=O)N[C@@H](CCCNC(=N)N)C(=O)N2	> 24 h	2.4 h
CC(C)C[C@@H]1NC(=O)[C@H](CCC(=O)O)NC(=O)[C@@H](NC(=O)[C@H](CCC(=O)O)NC(=O)[C@H](CC(=O)O)NC(=O)[C@H](N)CC(N)=O)CSSC[C@@H]2NC(=O)[C@H](C)NC(=O)[C@H](C(C)C)NC(=O)[C@H](CC(N)=O)NC(=O)[C@H](C(C)C)NC(=O)[C@H](CSSC[C@@H](C(=O)N[C@H](CC(C)C)C(=O)O)NC(=O)CNC(=O)[C@H]([C@@H](C)O)NC2=O)NC1=O	> 24 h	> 24 h
CC[C@H](C)[C@@H]1NC(=O)[C@H](CCC(=O)O)NC(=O)[C@@H]2CCCN2C(=O)[C@H](Cc2c[nH]cn2)NC(=O)[C@H](CC(=O)O)NC(=O)[C@H](Cc2ccc(O)cc2)NC(=O)[C@H](CC(N)=O)NC(=O)[C@@H]2CSSC[C@@H]3NC(=O)CNC(=O)CNC(=O)CNC(=O)[C@H](C)NC(=O)[C@H](C)NC(=O)CNC(=O)CNC(=O)[C@@H](CSSC[C@H](NC3=O)C(=O)N[C@@H](CO)C(=O)N[C@@H](CC(=O)O)C(=O)N3CCC[C@H]3C(=O)N[C@@H](CCCNC(=N)N)C(=O)N2)NC1=O	> 24 h	1.5 h
